These results are taken from patent publication US11116764B2, “Combination of pure 5-HT6 receptor antagonists with NMDA receptor antagonist” (SUVEN LIFE SCIENCES LIMITED, priority 2016, dated 2021).

Where a name gives a salt, the structure may show the parent alone.

For test [1], the target named is human recombinant 5-HT2A receptor (Homo sapiens (Human), UniProt P28223). Briefly: Determination of Ki value at 5-HT2A receptor ([3H]-Ketanserine radioligand binding). The settings on record: [3H]-Ketanserine 1.75 nM, average of three independent experiments. Here is the method: Determination of Ki Value at 5-HT2A Receptor
Compound was tested according to the following procedures.
Receptor source: Recombinant mammalian cells
Radioligand: [^3H]-Ketanserine (47.3 Ci/mmol)
Final ligand concentration—[1.75 nM]
Non-Specific Ligand: 0.1 mM 1-Naphthylpiperazine (1-NP)
Reference compound: 1-Naphthylpiperazine (1-NP)
Positive control: 1-Naphthylpiperazine (1-NP)
Incubation conditions: Reactions were carried out in 67 mM Tris-HCl (pH 7.4) for 4 hours at 37° C. The reaction was terminated by rapid vacuum filtration onto the glass fiber filters. Radioactivity trapped onto the filters was determined and compared to the control values in order to ascertain any interactions of the test compound(s) with the cloned serotonin 5-HT2A binding site. • Reference: Methods in Molecular Biology, 2002, 190, 31-49
Compounds 1, 2 and 3 bind weakly to 5-HT2A receptor when tested by the in-vitro radioligand binding technique on human recombinant 5-HT2A receptor. The Ki values tabulated below are average of three independent experiments.

The subject of test [2] is Male Wistar rats. The test is described as follows: Evaluation of theta modulation in dorsal hippocampus of anesthetized male Wistar rats. Format: in vivo, rat. The following applies: memantine 1 mg/kg i.v. alone or 30 min after compound 1 1 mg/kg i.v. From the text:
[…]. Academic Press, New York Results:

Test [3] relates to Male Wistar rats. The test is described as follows: Evaluation of acetylcholine modulation in ventral hippocampus of male Wistar rats (microdialysis). Format: in vivo, rat. The following applies: memantine 1 mg/kg s.c. alone or with compound 1 3 mg/kg p.o.; combination compared to memantine alone. The text has this: Evaluation of Acetylcholine Modulation in Ventral Hippocampus of Male Wistar Rats Experimental Procedure:
Male Wistar rats (240-300 g body weight) were stereotaxically implanted with a microdialysis guide cannula in ventral hippocampus (AP: −5.2 mm, ML: +5.0 mm, DV: −3.8 mm) under isoflurane anesthesia. Co-ordinates were taken according to atlas for the rat brain (Paxinos and Watson 2004) with reference points taken from bregma and vertical from the skull. The rats were allowed to recover individually for four-five days in a round bottom Plexiglas bowl with free access to feed and water.
After surgical recovery of 4-5 days, male Wistar rats were connected to dual quartz lined two-channel liquid swivel (Instech, UK) on a counter balance lever arm, which allowed unrestricted movements of the animal. […]
Acetylcholine in dialysate was quantified using LC-MS/MS method in the calibration range of 0.099 nmol/L-70.171 nmol/L.
All microdialysis data for acetylcholine was plotted as percent change from mean dialysate basal concentrations with 100% defined as the average of five pre-dose values. […] Area under the curve (AUC) values for percent change in acetylcholine levels were calculated and the statistical significance between the mean AUC value were compared against memantine treatment using one-way ANOVA followed by Dunnett's test. […]

The test system of test [4] is Male Wistar rats. The test is described as follows: Object recognition task model. The format is in vivo, rat. The settings on record: choice trial T2, 24 hours after T1; compared to the vehicle treatment. How it is done: Four animals were housed in each cage. […] Water was provided ad libitum throughout the experiment. […] Rats received vehicle or test compounds or memantine or test compound and memantine, before familiar (T1) and choice (T2) trials. […] During the T1 and T2 trial, explorations of each object (defined as sniffing, licking, chewing or having moving vibrissae whilst directing the nose towards the object at a distance of less than 1 cm) were recorded using stopwatch.

One may read the Ki as a dissociation constant, usually derived from enzyme kinetics or from competition with a known ligand. Take `COc1ccc2c(c1)c(CN1CCN(C)CC1)cn2S(=O)(=O)c1ccccc1Br` [Compound 1, 1-[(2-Bromophenyl)sulfonyl]-5-methoxy-3-[(4-methyl-1-piperazinyl)methyl]-1H-indole dimesylate monohydrate]: the Ki in test [1] is 2.51 ± 0.377 µM.

In the case of `COc1ccc2c(c1)c(CN1CCN(C)CC1)cn2S(=O)(=O)c1ccc(F)cc1` [Compound 2, 1-[(4-Fluorophenyl)sulfonyl]-5-methoxy-3-[(4-methyl-1-piperazinyl)methyl]-1H-indole dihydrochloride], the Ki in test [1] is above 10 µM.

For `COc1ccc2c(c1)c(CN1CCN(C)CC1)cn2S(=O)(=O)c1ccc(C(C)C)cc1` [Compound 3, 1-[(4-Isopropylphenyl)sulfonyl]-5-methoxy-3-[(4-methyl-1-piperazinyl)methyl]-1H-indole dihydrochloride], the Ki in test [1] was 0.926 ± 0.317 µM.

Regarding `CC12CC3CC(C)(C1)CC(N)(C3)C2` [memantine], the “change in hippocampal theta power” value in the test on Male Wistar rats [2] is recorded as “no change”. In addition, the “change in hippocampal acetylcholine levels” value in the test on Male Wistar rats [3] is recorded as “moderate change”. Also, the discriminative index entry with Male Wistar rats [4] is reported as “No significant increase”.
